Test system: Wistar (Crl:WI(Han)) rats
Assay: Mass spectrometry-based plasma metabolite profiling of rats treated with known inducers of thyroid function impairment
Type: in vivo, rat
Settings: ratio of group medians vs controls
Summary of the method: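 Rats aged 10-11 weeks, 5/sex/dose vs 10/sex controls, dosed at low and high levels; retro-orbital plasma taken under isoflurane on days 7, 14 and 28 after 16-20 h fast. Polar and non-polar fractions profiled by GC-MS (derivatised) and LC-MS/MS (MRM plus full scan), normalised to pool samples; Welch t-test by sex and day gives p-values and median ratios.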

[1] = female rats, fh7 (study day 7), Table 3
[2] = female rats, fh14 (study day 14), Table 3
[3] = female rats, fh28 (study day 28), Table 3
[4] = male rats, mh7 (study day 7), Table 4
[5] = male rats, mh14 (study day 14), Table 4
[6] = male rats, mh28 (study day 28), Table 4

SMILES: CCC(CC)Nc1c([N+](=O)[O-])cc(C)c(C)c1[N+](=O)[O-] [Pendimethalin]
- Arachidonic acid (C20:cis[58,11,14]4) [1]: 2.07
- Behenic acid (C22:0) [1]: 2.05
- Cholesterol [1]: 2.09
- Cysteine [1]: 0.52
- Docosahexaenoic acid (C22:cis[4,7,10,13,16,19]6) [1]: 1.85
- Dodecanol [1]: 1.24
- Eicosanoic acid (C20:0) [1]: 1.52
- Glycerol phosphate [1]: 1.91
- Heptadecanoic acid (C17:0) [1]: 1.35
- Linoleic acid (C18:cis[9,12]2) [1]: 1.38
- Nervonic acid C24:(cis[15]1) [1]: 3.51
- Palmitic acid (C16:0) [1]: 1.49
- Sphingomyelin (d18:1, C16:0) [1]: 2.01
- Stearic acid (C18:0) [1]: 1.86
- Threonic acid [1]: 1.85
- dihomo-gamma-Linolenic acid (C20:cis[8,11,14]3) [1]: 1.77
- erythro-Sphingosine [1]: 3.26
- gamma-Linolenic acid (C18:cis[6,9,12]3) [1]: 1.61
- myo-Inositol-2-phosphate [1]: 2.82
- threo-Sphingosine [1]: 2.95
- Arachidonic acid (C20:cis[58,11,14]4) [2]: 2.24
- Behenic acid (C22:0) [2]: 1.89
- Cholesterol [2]: 2.17
- Cysteine [2]: 0.56
- Docosahexaenoic acid (C22:cis[4,7,10,13,16,19]6) [2]: 1.82
- Dodecanol [2]: 1.31
- Eicosanoic acid (C20:0) [2]: 1.82
- Glycerol phosphate [2]: 1.93
- Heptadecanoic acid (C17:0) [2]: 1.56
- Linoleic acid (C18:cis[9,12]2) [2]: 1.63
- Nervonic acid C24:(cis[15]1) [2]: 2.62
- Palmitic acid (C16:0) [2]: 1.81
- Sphingomyelin (d18:1, C16:0) [2]: 1.64
- Stearic acid (C18:0) [2]: 1.97
- Threonic acid [2]: 1.79
- dihomo-gamma-Linolenic acid (C20:cis[8,11,14]3) [2]: 3.05
- erythro-Sphingosine [2]: 2.60
- gamma-Linolenic acid (C18:cis[6,9,12]3) [2]: 2.29
- myo-Inositol-2-phosphate [2]: 2.74
- threo-Sphingosine [2]: 2.67
- Arachidonic acid (C20:cis[58,11,14]4) [3]: 2.31
- Behenic acid (C22:0) [3]: 1.94
- Cholesterol [3]: 2.44
- Cysteine [3]: 0.95
- Docosahexaenoic acid (C22:cis[4,7,10,13,16,19]6) [3]: 1.85
- Dodecanol [3]: 1.31
- Eicosanoic acid (C20:0) [3]: 1.61
- Glycerol phosphate [3]: 2.06
- Heptadecanoic acid (C17:0) [3]: 1.63
- Linoleic acid (C18:cis[9,12]2) [3]: 1.36
- Nervonic acid C24:(cis[15]1) [3]: 2.54
- Palmitic acid (C16:0) [3]: 1.67
- Sphingomyelin (d18:1, C16:0) [3]: 1.58
- Stearic acid (C18:0) [3]: 2.12
- Threonic acid [3]: 2.05
- dihomo-gamma-Linolenic acid (C20:cis[8,11,14]3) [3]: 2.43
- erythro-Sphingosine [3]: 2.81
- gamma-Linolenic acid (C18:cis[6,9,12]3) [3]: 2.57
- myo-Inositol-2-phosphate [3]: 2.66
- threo-Sphingosine [3]: 2.49
- Behenic acid (C22:0) [4]: 1.94
- Cholesterol [4]: 1.67
- Citrate [4]: 0.86
- Cytosine [4]: 0.79
- Galactose, lipid fraction [4]: 1.81
- Glycerol phosphate [4]: 2.06
- Glycine [4]: 1.11
- Lignoceric acid (C24:0) [4]: 2.32
- Mannose [4]: 1.31
- Nervonic acid C24:(cis[15]1) [4]: 2.90
- Phospha-tidylcholine (C18:0, 18:2) [4]: 1.26
- Sphingomyelin (d18:1, C16:0) [4]: 2.10
- Stearic acid (C18:0) [4]: 1.64
- Threonic acid [4]: 1.39
- dihomo-gamma-Linolenic acis (C20:cis[8,11,14]3) [4]: 2.92
- erythro-Sphingosine [4]: 2.78
- myo-Inositol-2-phosphate [4]: 3.25
- threo-Sphingosine [4]: 2.96
- Behenic acid (C22:0) [5]: 1.90
- Cholesterol [5]: 2.03
- Citrate [5]: 0.83
- Cytosine [5]: 0.92
- Galactose, lipid fraction [5]: 2.03
- Glycerol phosphate [5]: 2.38
- Glycine [5]: 1.15
- Lignoceric acid (C24:0) [5]: 2.93
- Mannose [5]: 1.39
- Nervonic acid C24:(cis[15]1) [5]: 2.99
- Phospha-tidylcholine (C18:0, 18:2) [5]: 1.25
- Sphingomyelin (d18:1, C16:0) [5]: 1.97
- Stearic acid (C18:0) [5]: 2.28
- Threonic acid [5]: 1.47
- dihomo-gamma-Linolenic acis (C20:cis[8,11,14]3) [5]: 3.53
- erythro-Sphingosine [5]: 3.33
- myo-Inositol-2-phosphate [5]: 3.57
- threo-Sphingosine [5]: 3.52
- Behenic acid (C22:0) [6]: 1.79
- Cholesterol [6]: 2.29
- Citrate [6]: 0.87
- Cytosine [6]: 0.81
- Galactose, lipid fraction [6]: 2.23
- Glycerol phosphate [6]: 2.34
- Glycine [6]: 1.32
- Lignoceric acid (C24:0) [6]: 2.42
- Mannose [6]: 1.40
- Nervonic acid C24:(cis[15]1) [6]: 3.07
- Phospha-tidylcholine (C18:0, 18:2) [6]: 1.32
- Sphingomyelin (d18:1, C16:0) [6]: 2.03
- Stearic acid (C18:0) [6]: 2.12
- Threonic acid [6]: 1.85
- dihomo-gamma-Linolenic acis (C20:cis[8,11,14]3) [6]: 2.76
- erythro-Sphingosine [6]: 2.69
- myo-Inositol-2-phosphate [6]: 2.79
- threo-Sphingosine [6]: 2.73

From patent publication US20120132797A1, “MEANS AND METHODS FOR DIAGNOSING THYROID DISORDERS” (BASF SE, priority 2009, published 2012)
